Measured values taken from ChEMBL document CHEMBL3797124, “Synthesis of azepino[4,5-b]indol-4-ones via MCR/free radical cyclization and in vitro-in silico studies as 5-Ht₆R ligands” (Bioorg Med Chem Lett, 2016).
pKi: −log10 of the molar value.

What was measured:
[1] = molecular target: 5-hydroxytryptamine receptor 6 (Rattus norvegicus) (UniProt P31388); experiment: Displacement of [3H]-LSD from rat 5-Ht6 receptor expressed in HEK cells at 10 uM after 60 mins by liquid scintillation counting; type: cell-based; conditions: HEK293
[2] = molecular target: 5-hydroxytryptamine receptor 6 (Rattus norvegicus, UniProt P31388); experiment: Displacement of [3H]-LSD from rat 5-Ht6 receptor expressed in HEK cells after 60 mins by liquid scintillation counting; type: cell-based, HEK293
Sequence of 5-hydroxytryptamine receptor 6 (P31388 whole entry): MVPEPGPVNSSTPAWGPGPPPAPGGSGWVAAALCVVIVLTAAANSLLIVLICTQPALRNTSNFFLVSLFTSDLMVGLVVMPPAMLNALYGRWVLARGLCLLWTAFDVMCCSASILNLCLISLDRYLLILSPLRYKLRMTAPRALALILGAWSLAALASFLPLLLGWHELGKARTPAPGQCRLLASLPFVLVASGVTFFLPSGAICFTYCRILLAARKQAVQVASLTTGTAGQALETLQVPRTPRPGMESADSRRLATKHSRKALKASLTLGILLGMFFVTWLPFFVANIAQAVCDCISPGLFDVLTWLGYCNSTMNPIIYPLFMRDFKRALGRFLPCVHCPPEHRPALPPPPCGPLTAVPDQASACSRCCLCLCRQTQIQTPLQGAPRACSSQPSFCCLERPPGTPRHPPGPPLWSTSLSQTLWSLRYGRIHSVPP

Sequence of 5-hydroxytryptamine receptor 6 (Rattus norvegicus) (P31388 whole entry): as above

SMILES | inhibition [1] | log(%) [1] | pKi [2]
COc1cccc(C(c2nnnn2C(C)(C)C)N2CCc3c([nH]c4ccccc34)CC2=O)c1OC (stereo not drawn) | 16% | 1.2 | 
O=C(NC1CCCCC1)C(c1ccc(Cl)cc1)N1CCc2c([nH]c3ccccc23)CC1=O (stereo not drawn) | 15% | 1.18 | 
O=C1Cc2[nH]c3ccccc3c2CCN1C(c1ccc(Cl)cc1)c1nnnn1C1CCCCC1 (stereo not drawn) | 17% | 1.23 | 
CN(C)c1ccc(C(C(=O)NC(C)(C)C)N2CCc3c([nH]c4ccccc34)CC2=O)cc1 (stereo not drawn) | 16% | 1.2 | 
CC(C)(C)NC(=O)C(c1ccc2c(c1)OCO2)N1CCc2c([nH]c3ccccc23)CC1=O (stereo not drawn) | 7% | 0.85 | 
CC(C)(C)n1nnnc1C(c1ccc(Cl)cc1)N1CCc2c([nH]c3ccccc23)CC1=O (stereo not drawn) | 41% | 1.04 | 
Cc1cccc(C)c1-n1nnnc1C(C1CCCCC1)N1CCc2c([nH]c3ccccc23)CC1=O (stereo not drawn) | 3% | 0.48 | 
Cc1cccc(C)c1NC(=O)C(C1CCCCC1)N1CCc2c([nH]c3ccccc23)CC1=O (stereo not drawn) | 7% | 0.85 | 
CC(C)(C)NC(=O)C(c1ccc(Cl)cc1)N1CCc2c([nH]c3ccccc23)CC1=O (stereo not drawn) | 42% | 1.62 | 
CC(C)(C)n1nnnc1C(C1CCCCC1)N1CCc2c([nH]c3ccccc23)CC1=O (stereo not drawn) | 2% | 0.3 | 
CC(C)(C)n1nnnc1C(c1ccc(Br)cc1)N1CCc2c([nH]c3ccccc23)CC1=O (stereo not drawn) | 57% | 1.76 | 
CC(C)(C)NC(=O)C(c1ccc(Br)cc1)N1CCc2c([nH]c3ccccc23)CC1=O (stereo not drawn) | 66% | 1.82 | 
COc1cccc(C(C(=O)NC(C)(C)C)N2CCc3c([nH]c4ccccc34)CC2=O)c1OC (stereo not drawn) |  | 1.98 | 6.68
CC(C)(C)n1nnnc1C(c1ccc2c(c1)OCO2)N1CCc2c([nH]c3ccccc23)CC1=O (stereo not drawn) | 12% | 1.08 | 
Cc1cccc(C)c1-n1nnnc1C(c1ccc(Cl)cc1)N1CCc2c([nH]c3ccccc23)CC1=O (stereo not drawn) | 19% | 1.28 | 
CSc1ccc2c(c1)C(N1CCN(C)CC1)Cc1ccccc1S2 (stereo not drawn) | 100% | 2 | 
CC(C)(C)NC(=O)C(C1CCCCC1)N1CCc2c([nH]c3ccccc23)CC1=O (stereo not drawn) | 10% | 1 | 
Cc1cccc(C)c1NC(=O)C(c1ccc(Cl)cc1)N1CCc2c([nH]c3ccccc23)CC1=O (stereo not drawn) | 21% | 1.32 | 
CN(C)c1ccc(C(c2nnnn2C(C)(C)C)N2CCc3c([nH]c4ccccc34)CC2=O)cc1 (stereo not drawn) | 1% | 0 | 
